Molecular target: T1, hKv3.1b (Homo sapiens, UniProt P48547)
T1 construct: expressed in transfected cells
T1 sequence (P48547 1-585 isoform P48547-2): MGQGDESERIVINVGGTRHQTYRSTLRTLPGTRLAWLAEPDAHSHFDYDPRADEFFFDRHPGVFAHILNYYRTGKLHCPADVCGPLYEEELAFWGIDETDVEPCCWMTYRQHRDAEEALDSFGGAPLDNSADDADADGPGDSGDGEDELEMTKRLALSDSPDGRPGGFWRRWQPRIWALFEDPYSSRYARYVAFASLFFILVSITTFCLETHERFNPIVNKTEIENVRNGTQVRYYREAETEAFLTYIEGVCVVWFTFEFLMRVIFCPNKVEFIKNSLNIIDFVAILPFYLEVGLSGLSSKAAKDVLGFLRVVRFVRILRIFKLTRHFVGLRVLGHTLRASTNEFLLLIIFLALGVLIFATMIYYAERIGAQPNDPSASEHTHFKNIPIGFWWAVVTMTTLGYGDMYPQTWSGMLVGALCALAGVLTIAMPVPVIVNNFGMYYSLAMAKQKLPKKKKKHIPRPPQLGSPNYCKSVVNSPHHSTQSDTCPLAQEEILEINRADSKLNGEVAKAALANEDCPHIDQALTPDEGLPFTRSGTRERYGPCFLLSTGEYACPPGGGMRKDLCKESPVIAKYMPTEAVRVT
Experiment: Automated patch clamp (QPatch-16x) on HEK-293 cells stably expressing hKv3.1b
Assay type: cell-based
Details: for ECdelta5 mV: concentration needed to shift the activation threshold 5 mV; for Threshold Shift: maximum absolute hyperpolarizing shift of activation threshold at tested concentrations 0.37-30 μM
Outline: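 Whole-cell automated patch clamp, extracellular pH 7.4, 4 mM Na2ATP intracellular; holding −80 mV, 200 ms steps −70 to +10 mV. Five ascending concentrations (0.37–30 μM) per cell, ~3 min each, 0.33% DMSO vehicle. Activation threshold (5% of vehicle peak at 10 mV) shift fitted sigmoidally; ECdelta5 mV read from curve.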

ECdelta5 mV [nM] | Threshold Shift [mV] | Compound
3600 | 17 | Cc1ccccc1S(=O)(=O)n1ccc(C(=O)NCc2cnn(C)c2)c1 [Compound 76, 1-(2-methylbenzene-1-sulfonyl)-N-[(1-methyl-1H-pyrazol-4-yl)methyl]-1H-pyrrole-3-carboxamide]
3300 | 12 | Cc1ccc(CNC(=O)c2ccn(S(=O)(=O)c3ccccc3C)c2)nc1 [Compound 77, 1-(2-methylbenzene-1-sulfonyl)-N-[(5-methylpyridin-2-yl)methyl]-1H-pyrrole-3-carboxamide]
1900 | 17 | Cc1cc(CNC(=O)c2ccn(S(=O)(=O)c3ccccc3C)c2)on1 [Compound 78, 1-(2-methylbenzene-1-sulfonyl)-N-[(3-methyl-1,2-oxazol-5-yl)methyl]-1H-pyrrole-3-carboxamide]
2800 | 12 | Cc1cnc(CNC(=O)c2ccn(S(=O)(=O)c3ccccc3C)c2)o1 [Compound 80, 1-(2-methylbenzene-1-sulfonyl)-N-[(5-methyl-1,3-oxazol-2-yl)methyl]-1H-pyrrole-3-carboxamide]
1000 | 28 | O=C(NCc1cnccn1)c1ccn(S(=O)(=O)c2ccc(Cl)cc2)c1 [Compound 81, 1-(4-chlorobenzene-1-sulfonyl)-N-[(pyrazin-2-yl)methyl]-1H-pyrrole-3-carboxamide]
4100 | 14 | Cn1ccc(CNC(=O)c2ccn(S(=O)(=O)c3ccccc3)c2)n1 [Compound 82, 1-(benzenesulfonyl)-N-[(1-methyl-1H-pyrazol-3-yl)methyl]-1H-pyrrole-3-carboxamide]
5000 | 13 | Cc1ccc(CNC(=O)c2ccn(S(=O)(=O)c3ccccc3)c2)nc1 [Compound 83, 1-(benzenesulfonyl)-N-[(5-methylpyridin-2-yl)methyl]-1H-pyrrole-3-carboxamide]
4600 | 12 | Cc1cc(CNC(=O)c2ccn(S(=O)(=O)c3ccccc3)c2)on1 [Compound 84, 1-(benzenesulfonyl)-N-[(3-methyl-1,2-oxazol-5-yl)methyl]-1H-pyrrole-3-carboxamide]
3100 | 18 | Cc1ccc(CNC(=O)c2ccn(S(=O)(=O)c3ccc(F)cc3)c2)cn1 [Compound 85, 1-(4-fluorobenzene-1-sulfonyl)-N-[(6-methylpyridin-3-yl)methyl]-1H-pyrrole-3-carboxamide]
4000 | 15 | Cc1ccc(S(=O)(=O)n2cc(C(=O)NCc3cnc(C)cn3)cc2F)cc1 [Compound 87, 5-fluoro-1-(4-methylbenzene-1-sulfonyl)-N-[(5-methylpyrazin-2-yl)methyl]-1H-pyrrole-3-carboxamide]
2000 | 23 | Cc1ccc(S(=O)(=O)n2ccc(C(=O)NCc3cnc(C)cn3)c2F)cc1 [Compound 88, 2-fluoro-1-(4-methylbenzene-1-sulfonyl)-N-[(5-methylpyrazin-2-yl)methyl]-1H-pyrrole-3-carboxamide]
660 | 23 | Cc1ccc(S(=O)(=O)n2ccc(C(=O)NCc3cnc(Cl)cn3)c2)cc1 [Compound 89, N-[(5-chloropyrazin-2-yl)methyl]-1-(4-methylbenzene-1-sulfonyl)-1H-pyrrole-3-carboxamide]
1800 | 20 | Cc1cnc(CNC(=O)c2ccn(S(=O)(=O)c3ccc(C(F)(F)F)cc3)c2)cn1 [Compound 91, N-[(5-methylpyrazin-2-yl)methyl]-1-[4-(trifluoromethyl)benzene-1-sulfonyl]-1H-pyrrole-3-carboxamide]
3400 | 12 | Cc1cnc(CNC(=O)c2ccn(S(=O)(=O)c3ccc(F)c(Cl)c3)c2)cn1 [Compound 92, 1-(3-chloro-4-fluorobenzene-1-sulfonyl)-N-[(5-methylpyrazin-2-yl)methyl]-1H-pyrrole-3-carboxamide]
1500 | 34 | Cc1cnc(CNC(=O)c2ccn(S(=O)(=O)c3ccc(C(F)F)cc3)c2)cn1 [Compound 93, 1-[4-(difluoromethyl)benzene-1-sulfonyl]-N-[(5-methylpyrazin-2-yl)methyl]-1H-pyrrole-3-carboxamide]
1100 | 19 | Cc1ccc(S(=O)(=O)n2ccc(C(=S)NCc3cnc(C)cn3)c2)cc1 [Compound 94, 1-(4-methylbenzene-1-sulfonyl)-N-[(5-methylpyrazin-2-yl)methyl]-1H-pyrrole-3-carbothioamide]
1100 | 24 | Cc1ccc(S(=O)(=O)n2ccc(C(=O)NCc3cnc(C)cn3)c2)c(F)c1 [Compound 95, 1-(2-fluoro-4-methyl-phenyl)sulfonyl-N-[(5-methylpyrazin-2-yl)methyl]pyrrole-3-carboxamide]
1300 | 35 | COc1ccc(S(=O)(=O)n2ccc(C(=O)NCc3cnc(C)cn3)c2)c(F)c1 [Compound 96, 1-(2-fluoro-4-methoxy-phenyl)sulfonyl-N-[(5-methylpyrazin-2-yl)methyl]pyrrole-3-carboxamide]
3200 | 18 | COc1ccc(S(=O)(=O)n2ccc(C(=O)NCc3cnc(C)cn3)c2)cc1F [Compound 97, 1-(3-fluoro-4-methoxy-phenyl)sulfonyl-N-[(5-methylpyrazin-2-yl)methyl]pyrrole-3-carboxamide]
710 | 36 | COc1ccc(S(=O)(=O)n2ccc(C(=O)NCc3cnc(C)cn3)c2)c(C)c1 [Compound 98, 1-(4-methoxy-2-methyl-phenyl)sulfonyl-N-[(5-methylpyrazin-2-yl)methyl]pyrrole-3-carboxamide]
1900 | 21 | Cc1cnc(CNC(=O)c2ccn(S(=O)(=O)c3c(C)cc(F)cc3C)c2)cn1 [Compound 99, 1-(4-fluoro-2,6-dimethyl-phenyl)sulfonyl-N-[(5-methylpyrazin-2-yl)methyl]pyrrole-3-carboxamide]
4300 | 15 | Cc1cnc(CNC(=O)c2ccn(S(=O)(=O)c3cc(C)c(F)c(C)c3)c2)cn1 [Compound 100, 1-(4-fluoro-3,5-dimethyl-phenyl)sulfonyl-N-[(5-methylpyrazin-2-yl)methyl]pyrrole-3-carboxamide]
2000 | 23 | Cc1cnc(CNC(=O)c2ccn(S(=O)(=O)c3ccc(F)c(C)c3)c2)cn1 [Compound 101, 1-(4-fluoro-3-methyl-phenyl)sulfonyl-N-[(5-methylpyrazin-2-yl)methyl]pyrrole-3-carboxamide]
1400 | 32 | Cc1cnc(CNC(=O)c2ccn(S(=O)(=O)c3ccc4c(c3)CCO4)c2)cn1 [Compound 102, 1-(2,3-dihydrobenzofuran-5-ylsulfonyl)-N-[(5-methylpyrazin-2-yl)methyl]pyrrole-3-carboxamide]
720 | 24 | Cc1cc(C)c(S(=O)(=O)n2ccc(C(=O)NCc3cnc(C)cn3)c2)c(C)c1 [Compound 103, N-[(5-methylpyrazin-2-yl)methyl]-1-(2,4,6-trimethylphenyl)sulfonyl-pyrrole-3-carboxamide]
1000 | 31 | COc1ccc(S(=O)(=O)n2ccc(C(=O)NCc3cnc(C)cn3)c2)c(Cl)c1 [Compound 104, 1-(2-chloro-4-methoxy-phenyl)sulfonyl-N-[(5-methylpyrazin-2-yl)methyl]pyrrole-3-carboxamide]
1200 | 24 | COc1ccc(S(=O)(=O)n2ccc(C(=O)NCc3cnc(C)cn3)c2)c(Br)c1 [Compound 105, 1-(2-bromo-4-methoxy-phenyl)sulfonyl-N-[(5-methylpyrazin-2-yl)methyl]pyrrole-3-carboxamide]
550 | 42 | CNc1cnc(CNC(=O)c2ccn(S(=O)(=O)c3ccc(C)cc3F)c2)cn1 [Compound 106, 1-(2-fluoro-4-methylbenzene-1-sulfonyl)-N-{[5-(methylamino)pyrazin-2-yl]methyl}-1H-pyrrole-3-carboxamide]
1800 | 36 | CNc1cnc(CNC(=O)c2ccn(S(=O)(=O)c3ccc(OC(F)F)cc3)c2)cn1 [Compound 107, 1-[4-(difluoromethoxy)benzene-1-sulfonyl]-N-{[5-(methylamino)pyrazin-2-yl]methyl}-1H-pyrrole-3-carboxamide]
1200 | 29 | Cc1ccc(S(=O)(=O)n2ccc(C(=O)NCc3cnn(C)n3)c2)cc1 [Compound 109, 1-(4-methylbenzene-1-sulfonyl)-N-[(2-methyl-2H-1,2,3-triazol-4-yl)methyl]-1H-pyrrole-3-carboxamide]

Source: patent US20200131156A1, “ARYLSULFONYLPYROLECARBOXAMIDE DERIVATIVES AS Kv3 POTASSIUM CHANNEL ACTIVATORS” (H. Lundbeck A/S, priority 2018, published 2020)
